Cytotoxicity data for 74 compounds are collected here from ChEMBL document CHEMBL3507680, “University of Dundee, Gates Library screen for HepG2 cell viability”.

The structures appear in SMILES notation.

The series can be described thus: Human HepG2 cell viability assay in 384 well format. Details: dose 125 nL, time 70.5 hour; cytotoxicity at 70.5 h: concentration not given beside the values. To be noted: HepG2 cells, read-out: Inhibition. The class given is toxicity, cell-based.
Take `NC(=O)c1ccc(NC(=O)N2CCN(c3cccs3)CC2)c(F)c1`: the cytotoxicity at 70.5 h was -16.2%.

For the compound `CC(C)c1noc(C(C)N2CCN(Cc3nc4ccccc4[nH]3)CC2)n1` (centres undefined), the cytotoxicity at 70.5 h was -8.5%.

On to `CCN(CC)C(=O)N1CCOCC1c1c(C)nn(C)c1C` (centres undefined), for which the cytotoxicity at 70.5 h is -10.5%.

For the compound `Cc1nn(C)c(C)c1C1COCCN1C(=O)CSC(C)(C)C` (centres undefined), the cytotoxicity at 70.5 h is -18.7%.

On to `CC(C)N(C)S(=O)(=O)N(Cc1cccs1)CC1CCCO1` (centres undefined), for which the cytotoxicity at 70.5 h turned out to be 37.4%.

As to `CNC(=O)NC(=O)C(NCc1ccccc1)c1ccccc1` (centres undefined), the cytotoxicity at 70.5 h turned out to be 17.9%.

On to `COCCOc1ncccc1CNC(=O)N1CCCCCC1`, for which the cytotoxicity at 70.5 h was -12.7%.

`CCCN(CC1COc2ccccc2O1)C(=O)CCN1C(=O)CCC1=O` (centres undefined): the cytotoxicity at 70.5 h was -18.8%.

Regarding `CCC1CCCN(Cc2nc3ccccc3c(=O)[nH]2)C1` (centres undefined), the cytotoxicity at 70.5 h is -14%.

For `O=C(CCSc1ccccc1F)N1CCN(c2cnccn2)CC1`, the cytotoxicity at 70.5 h is 11%.

Regarding `Cc1cc(C)c(CNC(=O)NCCNc2ccccn2)c(=O)[nH]1`, the cytotoxicity at 70.5 h is -9.53%.

On to `Cc1occc1C(=O)NCC(=O)NCCCOc1ccc(F)cc1`, for which the cytotoxicity at 70.5 h was -17.7%.

Consider `O=C(CCSc1ccc(F)cc1)N1CCN(c2cnccn2)CC1`, for which the cytotoxicity at 70.5 h is -14.2%.

Take `COCCOc1ncccc1C(=O)N(C)c1nccs1`: the cytotoxicity at 70.5 h is -14.2%.

Take `CC(=O)c1cccc(NC(=O)NCCc2nnc[nH]2)c1`: the cytotoxicity at 70.5 h was -10.6%.

Regarding `CCC(=O)NCC(CC)Oc1cccc(F)c1` (centres undefined), the cytotoxicity at 70.5 h was -3.64%.

For the compound `CCC(CNC(=O)CNC(C)=O)Oc1cccc(F)c1` (centres undefined), the cytotoxicity at 70.5 h is -9.82%.

With `Cc1nc(CC2CCCN(Cc3nc(N)c4ccccc4n3)C2)no1` (centres undefined), the cytotoxicity at 70.5 h is -7.12%.

In the case of `Cc1ncc(S(=O)(=O)N(CC(C)C)c2cccc(O)c2)s1`, the cytotoxicity at 70.5 h is -1.45%.

Consider `CC(C)n1cc(CN2CCCN(C(=O)C3(C)CCOCC3)CC2)cn1`, for which the cytotoxicity at 70.5 h is -11.5%.

Turning to `COc1ccccc1CN(Cc1cccs1)S(=O)(=O)N(C)C(C)C`, the cytotoxicity at 70.5 h was -2.73%.

Consider `CC(C)N(C)S(=O)(=O)N(Cc1cccs1)Cc1cccs1`, for which the cytotoxicity at 70.5 h is -12.9%.

Turning to `Cc1nc(C(=O)N2CCCC(c3nc(C(C)C)cs3)C2)c[nH]1` (centres undefined), the cytotoxicity at 70.5 h was found to be 12.6%.

For the compound `CCN(CC)CC(=O)N1CCN(CCc2ccncc2)CC1`, the cytotoxicity at 70.5 h was -9.33%.

Turning to `COC(=O)C1CN(Cc2ccc(-c3ccncc3)cc2F)C[C@@H](C)O1` (some centres undefined), the cytotoxicity at 70.5 h is 11.8%.

With `COc1cccc(CNC(=O)CCOc2ccccc2C)c1`, the cytotoxicity at 70.5 h was -10.3%.

Regarding `COC(=O)c1ccc(Cl)c(S(=O)(=O)Nc2ccc(F)c(C(N)=O)c2)c1`, the cytotoxicity at 70.5 h was -14.5%.

In the case of `O=C(CC1CCN(c2ncnc3ccccc23)CC1)N1CCCC1`, the cytotoxicity at 70.5 h is -6.95%.

With `CSCc1ccc(CNCCCN2CCOCC2)o1`, the cytotoxicity at 70.5 h is -12.3%.

For the compound `Cc1ccccc1OCCCC(=O)NCc1ccnc(O)c1`, the cytotoxicity at 70.5 h was -11.5%.

With `CC(NC(=O)Nc1cccnc1N1CCOCC1)c1ccncc1` (centres undefined), the cytotoxicity at 70.5 h amounted to 6.43%.

In the case of `CC(C)C(=O)NS(=O)(=O)CCc1ccccc1`, the cytotoxicity at 70.5 h was -12.8%.

Consider `Cc1nc(Cn2cc(C#N)c(=O)c3ccccc32)no1`, for which the cytotoxicity at 70.5 h was -5.75%.

As to `Cc1noc(C)c1CN1CCCC1C(=O)OCc1ccccc1` (centres undefined), the cytotoxicity at 70.5 h is -10.7%.

For `Cc1oc(C)c(C(=O)NS(=O)(=O)c2ccc3c(c2)OCCO3)c1Br`, the cytotoxicity at 70.5 h is -17.9%.

For the compound `CC(=O)N1CCCN(C(C)C(=O)Nc2ccnn2C(C)C)CC1` (centres undefined), the cytotoxicity at 70.5 h was -3.26%.

Turning to `COCCN(CCC#N)S(=O)(=O)c1cc(F)ccc1F`, the cytotoxicity at 70.5 h is -2.55%.

Take `NCC1(c2cccc(C(F)(F)F)c2)CCC1`: the cytotoxicity at 70.5 h was -2.75%.

Turning to `COc1cccc(CN(C)Cc2cc(C#N)ccc2F)c1OC`, the cytotoxicity at 70.5 h is -9.77%.

Turning to `CCCn1nc2c(cc1=O)CN(Cc1cc(C)no1)CC2`, the cytotoxicity at 70.5 h was -8.28%.

Regarding `CNS(=O)(=O)c1cccc(C(C)NCc2ccc(C)c(C)c2)c1` (centres undefined), the cytotoxicity at 70.5 h turned out to be 19.3%.

For the compound `NC(=O)C1CCN(c2cncc(-n3cccn3)n2)CC1`, the cytotoxicity at 70.5 h stood at 6.36%.

In the case of `N#CCCN(C(=O)CN1CCCC1c1ccccc1Cl)c1ccccc1` (centres undefined), the cytotoxicity at 70.5 h was -11.7%.

With `COc1ccc(NC(=O)c2ccoc2C)c(N2CCN(C(C)=O)CC2)n1`, the cytotoxicity at 70.5 h is -14.1%.

Consider `CC(=O)c1cccc(NC(=O)CN2CCCCC2C(=O)N2CCCC2)c1` (centres undefined), for which the cytotoxicity at 70.5 h is -13.4%.

For the compound `CS(=O)(=O)c1ccc(NC(=O)CSc2ccc3c(c2)CCC3)cn1`, the cytotoxicity at 70.5 h was -14.4%.

For `CNC(=O)c1cnc(/C=C/c2ccc(O)c(OC)c2)s1`, the cytotoxicity at 70.5 h was -14.3%.

Turning to `COc1ccc(NC(=O)CN2CCCCC2C2OCCO2)cc1` (centres undefined), the cytotoxicity at 70.5 h was -4.96%.

In the case of `CCS(=O)(=O)N(C)C1CCN(C(=O)c2cc(C)cc(C)c2)CC1`, the cytotoxicity at 70.5 h was -14.2%.

On to `CNS(=O)(=O)c1cccc(C(C)NCc2cccc(C)c2C)c1` (centres undefined), for which the cytotoxicity at 70.5 h was -12.2%.

For the compound `Cc1ccc(C(CNCc2cccnc2)N2CCOCC2)s1` (centres undefined), the cytotoxicity at 70.5 h is -10.2%.

For `Cc1cc(C)n(-c2cncc(N3CCC(C(=O)N(C)C)CC3)n2)n1`, the cytotoxicity at 70.5 h was found to be 11.2%.

For the compound `c1ccc(C2CCCN(c3cncc(-n4cccn4)n3)CC2)cc1` (centres undefined), the cytotoxicity at 70.5 h was -9.13%.

For the compound `CN1CCN(C(=O)C2SCCc3sccc32)CC1` (centres undefined), the cytotoxicity at 70.5 h was -6.9%.

Take `COCc1nc2cc(NCc3cc[nH]n3)ccc2o1`: the cytotoxicity at 70.5 h was -2.44%.

In the case of `CNS(=O)(=O)c1cccc(C(C)NCc2ccc(F)c(F)c2)c1` (centres undefined), the cytotoxicity at 70.5 h is -6.64%.

For `CC(=O)Nc1nc(CN(C)CC2CCCN2c2cccnn2)cs1` (centres undefined), the cytotoxicity at 70.5 h was -12.7%.

Turning to `FC(F)(F)C1CCCn2c(CNCc3cccs3)nnc21` (centres undefined), the cytotoxicity at 70.5 h was -7.88%.

Consider `Cn1cccc1CNCc1nnc2n1CCCC2C(F)(F)F` (centres undefined), for which the cytotoxicity at 70.5 h is -5.37%.

For `CN(CC(=O)N1CCCC1c1noc(C2CC2)n1)S(C)(=O)=O` (centres undefined), the cytotoxicity at 70.5 h was -12.3%.

For the compound `O=C(CCn1cccn1)NCC(c1cccs1)N1CCOCC1` (centres undefined), the cytotoxicity at 70.5 h was 25.6%.

For the compound `CCOc1ncccc1CNC(=O)N1CCCC1c1cccs1` (centres undefined), the cytotoxicity at 70.5 h was -11.7%.

Regarding `COc1cc(CNC(=O)N2CCCC2c2cc(C)no2)ccn1` (centres undefined), the cytotoxicity at 70.5 h is -15.1%.

For the compound `CNC(=O)NC(=O)C(C)N1CCC(c2c[nH]c3ccc(OC)cc23)CC1` (centres undefined), the cytotoxicity at 70.5 h is -2.98%.

In the case of `CCSCCC(=O)Nc1ncn(Cc2ccccc2)n1`, the cytotoxicity at 70.5 h is -14.4%.

In the case of `CC(SCC(=O)NC(N)=O)c1ccccc1F` (centres undefined), the cytotoxicity at 70.5 h was -8.18%.

Consider `CN(C)C(=O)Cn1cc(C#N)c(=O)c2cc(Br)ccc21`, for which the cytotoxicity at 70.5 h was found to be 1.29%.

For `CC(C)CNC(=O)c1cc(Br)c2c(c1)OCCO2`, the cytotoxicity at 70.5 h is -7.77%.

Take `CCc1nc2n(n1)CCCC2Nc1nc(C2CC2)ns1` (centres undefined): the cytotoxicity at 70.5 h was -8.97%.

Take `CCCS(=O)(=O)CC(=O)N1CCCC1c1noc(C2CC2)n1` (centres undefined): the cytotoxicity at 70.5 h is -17.8%.

With `O=C(Cn1cccn1)NCC(c1cccs1)N1CCCC1` (centres undefined), the cytotoxicity at 70.5 h was -11.9%.

Take `CC(NC(=O)CCn1cccn1)c1cccs1` (centres undefined): the cytotoxicity at 70.5 h is -0.167%.

Turning to `Cc1ccc(N2CCCC(N(C)Cc3nc(C)c(C)o3)C2)nn1` (centres undefined), the cytotoxicity at 70.5 h was -11.5%.

As to `Cc1ccc(N2CCCC(N(C)Cc3noc(C4CC4)n3)C2)nn1` (centres undefined), the cytotoxicity at 70.5 h was -9.69%.
